# Reference: patent US20240207264A1, “PHARMACEUTICAL COMPOSITIONS COMPRISING INHIBITORS OF THE ANDROGEN RECEPTOR AND USES THEREOF” (ESSA PHARMA INC., priority 2021, published 2024)
# “Also recorded” adds a separate entry of the source.
# Legend:
# [1] = PK study, single PO dose, rats; format: in vivo; details: Sprague-Dawley, rat, plasma, male SD rats; for half-life: read-out: T½ (converted)
# Experimental: A single PO dose of Compound A in three different formulations were administered to male Sprague-Dawley (SD) rats. Animals in Group 1 (Solution) received Compound A by oral gavage (PO) administration at 30 mg/kg, which was formulated in 4% NMP, 20% Capmul MCM, 21% Vitamin E TPGS, 55% PEG400. Animals in Group 2 (Suspension A) received Compound A by oral gavage (PO) administration at 100 mg/kg, which was formulated in SDD formulation with HPMCAS-H in 0.5% Methocel A4M in water. Mean plasma of Compound A was measured over 24-hour period after administration of Compound A (FIG. 15A) and PK parameters were determined (Table 29).
# [2] = PK study, single PO dose, dogs; format: in vivo; details: male, Beagle, dog, plasma; for half-life: read-out: T½ (converted)
# Experimental: A single PO dose of Compound A in two different formulations were administered to male Beagle dogs. Mean plasma of Compound A was measured over 24-hour period after administration of Compound A (FIG. 15B) and PK parameters were determined (Table 30).
# [3] = PK study, single PO dose, mice; format: in vivo; details: male, CD-1, mouse, plasma, male CD-1 mice
# Experimental: A single PO dose of Compound A in different doses in solid dispersion and at 30 mg/kg dose of Compound A in solution were administered to male CD-1 mice. Mean plasma of Compound A was measured over 24 hour period after administration of Compound A (FIG. 15C) and PK parameters were determined (Table 31).
# LNCaP = LNCaP prostate cancer xenograft model; format: in vivo; details: LNCaP (AR FL), castrated male mice, 60 mg/kg, Solution, qd24
# Experimental: (§1) Compound A's activity was measured in a variety of castrate-sensitive and castrate-resistant prostate cancer (CRPC) xenograft models (Table 32).
# VCaP tumors = assay: VCaP prostate cancer xenograft model; format: in vivo, SCID Beige male mice; details: VCaP (amplified AR, some AR-V7), castrated male mice, Solution, qd24
# LNCaP95 = LNCaP95 prostate cancer xenograft model; format: in vivo; details: LNCaP95 (high level AR-V7), castrated male mice, 30 mg/kg, Solution, qd24
# Experimental: as §1
# 22Rv1 = 22Rv1 prostate cancer xenograft model; format: in vivo; details: 22Rv1 (high level AR-V7), castrated male mice, 30 mg/kg, Solution, qd28
# Experimental: as §1
# HID28 = assay: Enzalutamide resistant patient-derived xenograft (PDX) model HID28; format: in vivo, nude mice; details: HID28 PDX (AR+ PSA+), castrated male mice, 60 mg/kg, SDD, qd28
# Experimental: as §1
# For example, intact male nude mice were engrafted with HID28 tumor fragments and once tumors reached ˜150 mm^3 the mice were castrated. The mice were enrolled in the experiment once the tumors started to regrow, 10 days post-castration. Compound A was tested in the HID28 PDX model at 60 mg/kg, QD for 28 days using SDD formulation with HPMCAS-H in 0.5% Methocel A4M in water.
# Mean tumor volume in castrated nude mice bearing enzalutamide resistant patient-derived xenograft (PDX) model HID28 was measured after oral treatment with solid dispersion composition of Compound A or enzalutamide for 28 days (n=6-7 per group) is shown in FIG. 16B.
# [4] = Phase I clinical study, safety (DLT); format: in vivo, human
# Experimental: (§2) Phase I clinical research study of Compound A is studied as a treatment for patients with prostate cancer. All patients in the study receives Compound A at a once daily oral dose of 200 mg, 400 mg, 600 mg, 800 mg, or 1000 mg. Compound A in this study is provided as an SDD composition with HPMCAS-H. One cycle of treatment is 28 days of dosing.
# The primary safety variable for Part 1a of the study is the incidence of protocol-defined dose limiting toxicity (DLT) during the DLT assessment period (first 28 days of dosing). The DLTs will be characterized by type, frequency, severity (as graded by National Cancer Institute Common Terminology Criteria for AEs [NCI CTCAE version 5.0]), timing, seriousness, and relationship to study drug.
# [5] = system: serum prostate specific antigen (PSA); assay: Phase I clinical study, serum PSA; format: in vivo, human; details: 200 mg/day
# Experimental: as §2
# The primary efficacy variable for Part 1b of the study is the proportion of patients with a decline from baseline in prostate specific antigen (PSA) blood concentrations of ≥50% at any time point during daily dosing with Compound A,
# The study is still on-going with other dose levels.
# [6] = PO 30 mg/kg, Solution (4% NMP, 20% Capmul MCM, 21% Vitamin E TPGS, 55% PEG400)
# [7] = PO 100 mg/kg, Suspension A (SDD with HPMCAS-H in 0.5% Methocel A4M in water)
# [8] = 50 mg/kg, PO 50 mg/kg, Solution (5% NMP, 20% vitamin E TPGS, 20% PEG 300, 0.5% SLS, 1.09% HPMCAS-H, 53.91% water)
# [9] = 50 mg/kg, PO 50 mg/kg, Suspension A (SDD)
# [10] = 100 mg/kg, PO 100 mg/kg, Suspension A (SDD)
# [11] = 10 mg/kg, PO 10 mg/kg, Suspension A (SDD)
# [12] = 30 mg/kg, PO 30 mg/kg, Solution (9% DMSO, 9% NMP, 27% solutol, 55% PEG400)
# [13] = 30 mg/kg, PO 30 mg/kg, Suspension A (SDD)
# [14] = 90 mg/kg, PO 90 mg/kg, Suspension A (SDD)
# [15] = 270 mg/kg, PO 270 mg/kg, Suspension A (SDD)
# [16] = 3 subjects, 28 day dosing at 200 mg/day
smiles,measurement,setting,value
"CC(C)(c1ccc(OCc2ccnc(NS(C)(=O)=O)n2)cc1)c1cc(Cl)c(OCCCl)c(C#N)c1 [Compound A, N-(4-((4-(2-(3-chloro-4-(2-chloroethoxy)-5-cyanophenyl)propan-2-yl)phenoxy)methyl)pyrimidin-2-yl)methanesulfonamide]",AUC(0-t),[1]; [6],399 µg·h/mL
same,Cmax,[1]; [6],26.8 µg/mL
same,Tmax,[1]; [6],9.3 h
same,half-life,[1]; [6],7.6 h
same,AUC(0-t),[1]; [7],1180 µg·h/mL
same,Cmax,[1]; [7],89.8 µg/mL
same,Tmax,[1]; [7],5.3 h
same,half-life,[1]; [7],6.2 h
same,AUC(0-t),[2]; [8],648 µg·h/mL
same,Cmax,[2]; [8],45.8 µg/mL
same,Tmax,[2]; [8],2 h
same,half-life,[2]; [8],21.9 h
same,AUC(0-t),[2]; [9],845 µg·h/mL
same,Cmax,[2]; [9],55.5 µg/mL
same,Tmax,[2]; [9],3.3 h
same,half-life,[2]; [9],16.2 h
same,AUC(0-t),[2]; [10],1450 µg·h/mL
same,Cmax,[2]; [10],80.6 µg/mL
same,Tmax,[2]; [10],5.3 h
same,half-life,[2]; [10],24 h
same,AUC(0-inf),[3]; [11],189 µg·h/mL
same,AUC(0-t),[3]; [11],177 µg·h/mL
same,Cmax,[3]; [11],14.3 µg/mL
same,AUC(0-inf),[3]; [12],352 µg·h/mL
same,AUC(0-t),[3]; [12],336 µg·h/mL
same,Cmax,[3]; [12],32 µg/mL
same,AUC(0-inf),[3]; [13],604 µg·h/mL
same,AUC(0-t),[3]; [13],565 µg·h/mL
same,Cmax,[3]; [13],45.9 µg/mL
same,AUC(0-inf),[3]; [14],1700 µg·h/mL
same,AUC(0-t),[3]; [14],1570 µg·h/mL
same,Cmax,[3]; [14],110 µg/mL
same,AUC(0-inf),[3]; [15],2690 µg·h/mL
same,AUC(0-t),[3]; [15],2310 µg·h/mL
same,Cmax,[3]; [15],162 µg/mL
same,TGI (Tumor Growth Inhibition),LNCaP,93%
same,TGI (Tumor Growth Inhibition),VCaP tumors; 3 mg/kg,54%
same,TGI (Tumor Growth Inhibition),VCaP tumors; 10 mg/kg,95%
same,TGI (Tumor Growth Inhibition),VCaP tumors; 30 mg/kg,>100%
same,TGI (Tumor Growth Inhibition),LNCaP95,54%
same,TGI (Tumor Growth Inhibition),22Rv1,48%
same,TGI (Tumor Growth Inhibition),HID28,58%
same,tolerability,[4]; 200 mg/day,well tolerated
same,dose limiting toxicity (DLT),[4]; [16],No DLTs were observed; also recorded: No dose limiting toxicity was observed
same,severe adverse events,[4]; [16],no severe adverse events were observed
same,Serum PSA level decline,"[5]; one subject, after 3 cycles (12 weeks)",> 50%
same,Serum PSA levels,[5]; two other subjects,showed increase
